Data as given in the NIST ThermoML archive (doi:10.1021/acs.jced.7b00483).
± gives the expanded uncertainty stated by the source.

Experiment: molar heat capacity at constant pressure
Settings: 100 kPa, Liquid, Flow calorimetry

O [water]
Settings | molar heat capacity at constant pressure [J/K/mol]
298.15 K | 75.66 ± 0.16
303.15 K | 75.57 ± 0.16
308.15 K | 75.54 ± 0.16
313.15 K | 75.5 ± 0.16
318.15 K | 75.47 ± 0.16
323.15 K | 75.45 ± 0.16
328.15 K | 75.45 ± 0.16
333.15 K | 75.47 ± 0.16
338.15 K | 75.5 ± 0.16
343.15 K | 75.57 ± 0.16
348.15 K | 75.66 ± 0.16
353.15 K | 75.77 ± 0.16
358.15 K | 75.9 ± 0.16
363.15 K | 76.02 ± 0.16
